Measurements reported in patent publication US20250009743A1, “METHODS OF TREATING CANCERS USING STING AGONISTS” (Dana-Farber Cancer Institute, Inc., priority 2021, published 2025).

Legend:
BP-sgSTING tumors = assay: BP-sgSTING tumor growth and survival in FVB mice; format: in vivo, mouse; conditions: olaparib 50 mg/kg i.p. q.d.
Method: Primary mammary tumor cells for orthotopic injection were resuspended in serum-free DMEM containing 40% matrigel (Corning). 5×10^5 tumor cells in a total volume of 100 μL were injected orthotopically into the thoracic mammary fat pads of 8-week-old female FVB/NJ mice (The Jackson Laboratory). Tumor growth was examined by measuring the greatest longitudinal diameter (length) and the greatest transverse diameter (width) with digital calipers, and tumor volume was calculated by use of the modified ellipsoid formula (0.52×length×width2). Tumors were measured 2-3 times a week. All tumor measurements within single cohorts were performed by the same researcher. Tumor-bearing mice were randomized prior to start of treatment. Drug treatments were started when mean tumor volumes approximated 50-100 mm3. Mice were euthanized by CO2 inhalation when tumor volumes met humane endpoints described in the IACUC (20 mm diameter) protocols or upon severe health deterioration.
Olaparib (MedChem, #HY-10162) was prepared by diluting 100 mg/l mL stocks in DMSO with 10% (2-Hydroxypropyl)-β-cyclodextrin (HPCD, MedChem, #101103) in PBS and administered immediately after drug preparation by intraperitoneal (i.p.) injection at a dose of 50 mg/kg body weight daily. DMXAA (Sigma, #D5817) was reconstituted at 10 mg/mL in 7.5% NaHCO3(Gibco). […]

PBM tumors = assay: PBM ovarian tumor burden in syngeneic FVB/NJ mice; format: in vivo, mouse; conditions: olaparib 50 mg/kg i.p. 6 days a week; most tumors eventually progressed; FIG. 15B
Method: Tumor burden of PBM tumor-bearing mice treated with indicated agents was measured by bioluminescence (ROI, […]) after 2 weeks of treatment (control, n=6; olaparib, n=7, olaparib+MSA-2, n=4). Ordinary one-way ANOVA analysis. **, P<0.01; ***, P<0.001. The murine ovarian tumor model PBM used for this experiment was previously generated (Ding L, Kim H J, Wang Q, Kearns M, Jiang T, Ohlson C E, Li B B, Xie S, Liu J F, Stover E H, Howitt B E, Bronson R T, Lazo S, Roberts T M, Freeman G J, Konstantinopoulos P A, Matulonis U A, Zhao J J. PARP Inhibition Elicits STING-Dependent Antitumor Immunity in Brca1-Deficient Ovarian Cancer. Cell Rep. 2018 Dec. 11;25 (11): 2972-2980.e5. doi: 10.1016/j.celrep.2018.11.054. PMID: 30540933; PMCID: PMC6366450). About 2×10^5 PBM tumor cells were orthotopically transplanted into syngeneic FVB/NJ mice. Ten days after transplantation, Tumor-bearing mice were equivalently divided into control and treatment groups according to the luminescent intensity. Tumor burden of PBM tumor-bearing mice was measured by bioluminescence (ROI, […]). Olaparib (AZD2281) was administered daily by i.p. (intraperitoneal) injection at dose of 50 mg/kg body weight. […]
The PBM and PBM-R tumor cells were transplanted orthotopically into syngeneic FVB/NJ mice to generated tumors for drug evaluation. […] The endpoints were determined by tumor burden and ascites.

SMILES | BP-sgSTING tumor growth (BP-sgSTING tumors; DMXAA 10 mg/kg i.p. weekly, FIG. 11H) | BP-sgSTING tumor growth (BP-sgSTING tumors; DMXAA 10 mg/kg intratumoral one dose per week, FIG. 12B) | PBM tumor response (PBM tumors)
Cc1ccc2c(=O)c3cccc(CC(=O)O)c3oc2c1C [DMXAA, 5,6-dimethyl-xanthenone-4-acetic acid] | no significant impact | completely refractory | 
O=C(c1cc(Cc2n[nH]c(=O)c3ccccc23)ccc1F)N1CCN(C(=O)C2CC2)CC1 [olaparib] |  |  | initial robust response
